Test results as given in patent publication US20240141294A1, “CGMP COMPLIANT PRODUCTION AND EXPANSION OF PLASMACYTOID DENDRITIC CELLS FROM HEMATOPOIETIC STEM AND PROGENITOR CELLS” (AARHUS UNIVERSITET, priority 2021, published 2024).

Test system: HSPC-pDCs
Assay: RNA-sequencing of HSPC-pDCs generated with or without ascorbic acid
Format: cell-based, human
Protocol: HSPCs were thawed and 1×10^5 cells were seeded in DC medium with or without supplementation of ascorbic acid (AA). Following 16 days of differentiation with or without AA in the medium, pDCs were isolated by immunomagnetic depletion of non-pDCs, and HSPCs-pDCs were then primed for 72 hours with IFN-β/γ. Following priming, HSPC-pDCs were stored in RNAprotect Cell Reagent (Qiagen) at −80° C. until total RNA was extracted using the RNeasy Plus Micro Kit (Qiagen), which efficiently eliminates genomic DNA without the need for DNase treatment. The total RNA was send to BGI Europe for RNA-seq. Here, a non-stranded & polyA-selected mRNA library was prepared from the total RNA and subjected to PE100 sequencing using the BGISEQ platform. The samples generated on average about 4.84 Gb bases per sample. Low quality reads were filtered and the remaining reads were mapped to the genome with an average mapping ratio with the reference genome at 92.74%, the average gene mapping ratio at 79.90%. In total, 18,412 genes were identified. Gene expression was calculated based on the reads, differentially expressed genes and gene ontology analyses were analyzed on BGI's software analysis platform Dr. Tom. HSPCs were thawed and 1×10^5 cells were seeded in DC medium with or without supplementation of ascorbic acid (AA). Following 16 days of differentiation with or without AA in the medium, pDCs were isolated by immunomagnetic depletion of non-pDCs, and HSPCs-pDCs were then primed for 72 hours with IFN-β/γ. Following priming, HSPC-pDCs were stored in RNAprotect Cell Reagent (Qiagen) at −80 degrees until total RNA was extracted using the RNeasy Plus Micro Kit (Qiagen), which efficiently eliminates genomic DNA without the need for DNase treatment. The total RNA was send to BGI Europe for RNA-seq. Here, a non-stranded & polyA-selected mRNA library was prepared from the total RNA and subjected to PE100 sequencing using the BGISEQ platform. The samples generated on average about 4.84 Gb bases per sample. Low quality reads were filtered and the remaining reads were mapped to the genome with an average mapping ratio with the reference genome at 92.74%, the average gene mapping ratio at 79.90%. In total, 18,412 genes were identified. Gene expression was calculated based on the reads, differentially expressed genes and gene ontology analyses were analyzed on BGI's software analysis platform Dr. Tom.

[1] = condition with AA, |log 2FC|>=1 and Qvalue <=0.05

O=C1O[C@H]([C@@H](O)CO)C(O)=C1O [ascorbic acid]
number of downregulated genes [1]: 334 genes
number of upregulated genes [1]: 916 genes
Log2 (+AA/−AA) (gene ADA2, Qvalue 2.90E−08): 0.759
+AA FPKM (gene ADA2, −AA FPKM 117.7033): 197.7367 FPKM
Log2 (+AA/−AA) (gene ALOX5AP, Qvalue 0.002016945): 0.793
+AA FPKM (gene ALOX5AP, −AA FPKM 210): 364 FPKM
Log2 (+AA/−AA) (gene ANXA2, Qvalue 9.39E−07): 1.658
+AA FPKM (gene ANXA2, −AA FPKM 106): 333 FPKM
Log2 (+AA/−AA) (gene APP, Qvalue 0.015253176): 0.696
+AA FPKM (gene APP, −AA FPKM 133): 215 FPKM
Log2 (+AA/−AA) (gene BRI3, Qvalue 0.00802755): 0.724
+AA FPKM (gene BRI3, −AA FPKM 216): 358 FPKM
Log2 (+AA/−AA) (gene C1QA, Qvalue 0.002254892): 1.342
+AA FPKM (gene C1QA, −AA FPKM 91): 230 FPKM
Log2 (+AA/−AA) (gene C1QB, Qvalue 0.011037205): 1.137
+AA FPKM (gene C1QB, −AA FPKM 147): 323 FPKM
Log2 (+AA/−AA) (gene C1QC, Qvalue 0.002547556): 1.551
+AA FPKM (gene C1QC, −AA FPKM 126): 365 FPKM
Log2 (+AA/−AA) (gene C1orf162, Qvalue 0.038404809): 0.529
+AA FPKM (gene C1orf162, −AA FPKM 178): 256 FPKM
Log2 (+AA/−AA) (gene CD68, Qvalue 3.20E−09): 1.365
+AA FPKM (gene CD68, −AA FPKM 240): 619 FPKM
Log2 (+AA/−AA) (gene CD74, Qvalue 3.24E−08): 0.841
+AA FPKM (gene CD74, −AA FPKM 5008): 8923 FPKM
Log2 (+AA/−AA) (gene CD81, Qvalue 0.002330558): 1.451
+AA FPKM (gene CD81, −AA FPKM 85): 235 FPKM
Log2 (+AA/−AA) (gene CHI3L1, Qvalue 0.024834793): 2.178
+AA FPKM (gene CHI3L1, −AA FPKM 108): 496 FPKM
Log2 (+AA/−AA) (gene CTSB, Qvalue 6.81E−09): 1.920
+AA FPKM (gene CTSB, −AA FPKM 96): 363 FPKM
Log2 (+AA/−AA) (gene CTSD, Qvalue 1.73E−06): 1.460
+AA FPKM (gene CTSD, −AA FPKM 323): 893 FPKM
Log2 (+AA/−AA) (gene CTSH, Qvalue 2.00E−04): 1.227
+AA FPKM (gene CTSH, −AA FPKM 116): 271 FPKM
Log2 (+AA/−AA) (gene CTSS, Qvalue 1.80E−04): 0.939
+AA FPKM (gene CTSS, −AA FPKM 126): 242 FPKM
Log2 (+AA/−AA) (gene CTSZ, Qvalue 3.93E−08): 1.002
+AA FPKM (gene CTSZ, −AA FPKM 232): 462 FPKM
Log2 (+AA/−AA) (gene CYBB, Qvalue 0.018453508): 0.807
+AA FPKM (gene CYBB, −AA FPKM 184): 322 FPKM
Log2 (+AA/−AA) (gene DEFA1, Qvalue 6.38E−05): 5.728
+AA FPKM (gene DEFA1, −AA FPKM 20): 1047 FPKM
Log2 (+AA/−AA) (gene DEFA3, Qvalue 0.001704486): 4.431
+AA FPKM (gene DEFA3, −AA FPKM 27): 593 FPKM
Log2 (+AA/−AA) (gene DEFA4, Qvalue 1.65E−08): 4.651
+AA FPKM (gene DEFA4, −AA FPKM 39): 975 FPKM
Log2 (+AA/−AA) (gene EVI2B, Qvalue 0.01888367): 0.294
+AA FPKM (gene EVI2B, −AA FPKM 193): 236 FPKM
Log2 (+AA/−AA) (gene FCER1G, Qvalue 0.033270138): 0.509
+AA FPKM (gene FCER1G, −AA FPKM 961): 1367 FPKM
Log2 (+AA/−AA) (gene FLNA, Qvalue 0.011692048): 0.372
+AA FPKM (gene FLNA, −AA FPKM 160.4000): 206.4233 FPKM
Log2 (+AA/−AA) (gene FTH1, Qvalue 0.00845252): 1.289
+AA FPKM (gene FTH1, −AA FPKM 1395): 3417 FPKM
Log2 (+AA/−AA) (gene GRINA, Qvalue 0.006989716): 0.718
+AA FPKM (gene GRINA, −AA FPKM 130): 214 FPKM
Log2 (+AA/−AA) (gene GRN, Qvalue 0.015829898): 0.695
+AA FPKM (gene GRN, −AA FPKM 432): 696 FPKM
Log2 (+AA/−AA) (gene HLA-DMB, Qvalue 0.022417743): 0.717
+AA FPKM (gene HLA-DMB, −AA FPKM 188): 307 FPKM
Log2 (+AA/−AA) (gene HLA-DPA1, Qvalue 6.34E−04): 0.763
+AA FPKM (gene HLA-DPA1, −AA FPKM 1038): 1750 FPKM
Log2 (+AA/−AA) (gene HLA-DPB1, Qvalue 0.003235049): 0.785
+AA FPKM (gene HLA-DPB1, −AA FPKM 227): 388 FPKM
Log2 (+AA/−AA) (gene HLA-DQA1, Qvalue 0.03140587): 1.374
+AA FPKM (gene HLA-DQA1, −AA FPKM 161): 414 FPKM
Log2 (+AA/−AA) (gene HLA-DRB1, Qvalue 1.76E−04): 1.122
+AA FPKM (gene HLA-DRB1, −AA FPKM 1106): 2401 FPKM
Log2 (+AA/−AA) (gene HLA-DRB3, Qvalue 0.018823029): 1.224
+AA FPKM (gene HLA-DRB3, −AA FPKM 159): 365 FPKM
Log2 (+AA/−AA) (gene IFI27, Qvalue 3.56E−04): 4.638
+AA FPKM (gene IFI27, −AA FPKM 15): 377 FPKM
Log2 (+AA/−AA) (gene IFITM3, Qvalue 6.61E−06): 1.496
+AA FPKM (gene IFITM3, −AA FPKM 494): 1383 FPKM
Log2 (+AA/−AA) (gene IL2RG, Qvalue 0.001778062): 0.785
+AA FPKM (gene IL2RG, −AA FPKM 122): 209 FPKM
Log2 (+AA/−AA) (gene ITGB2, Qvalue 9.28E−04): 0.599
+AA FPKM (gene ITGB2, −AA FPKM 433): 654 FPKM
Log2 (+AA/−AA) (gene LGALS3, Qvalue 5.07E−04): 1.667
+AA FPKM (gene LGALS3, −AA FPKM 62.3833): 199.3967 FPKM
Log2 (+AA/−AA) (gene LGALS3BP, Qvalue 5.08E−05): 1.001
+AA FPKM (gene LGALS3BP, −AA FPKM 155): 310 FPKM
Log2 (+AA/−AA) (gene MX1, Qvalue 0.026353098): 2.341
+AA FPKM (gene MX1, −AA FPKM 42): 212 FPKM
Log2 (+AA/−AA) (gene NCF1, Qvalue 0.015338721): 0.659
+AA FPKM (gene NCF1, −AA FPKM 131): 207 FPKM
Log2 (+AA/−AA) (gene PRDX1, Qvalue 0.009710824): 1.094
+AA FPKM (gene PRDX1, −AA FPKM 106): 227 FPKM
Log2 (+AA/−AA) (gene PSAP, Qvalue 7.31E−04): 0.802
+AA FPKM (gene PSAP, −AA FPKM 600): 1044 FPKM
Log2 (+AA/−AA) (gene RETN, Qvalue 0.035172121): 0.766
+AA FPKM (gene RETN, −AA FPKM 244): 414 FPKM
Log2 (+AA/−AA) (gene S100A11, Qvalue 0.024890893): 0.525
+AA FPKM (gene S100A11, −AA FPKM 732): 1054 FPKM
Log2 (+AA/−AA) (gene SERPING1, Qvalue 2.30E−05): 1.387
+AA FPKM (gene SERPING1, −AA FPKM 181): 471 FPKM
Log2 (+AA/−AA) (gene SOD2, Qvalue 0.017321675): 1.145
+AA FPKM (gene SOD2, −AA FPKM 129): 301 FPKM
Log2 (+AA/−AA) (gene TYMP, Qvalue 0.016368204): 0.679
+AA FPKM (gene TYMP, −AA FPKM 348): 553 FPKM
number of TLR7 and TLR9 pathway genes statistically significantly expressed (of 54 selected genes, AA in media during HSPC-pDC generation): 17 genes
